{"source": "patent US9018383B2", "about": "“Acylamino-substituted cyclic carboxylic acid derivatives and their use as pharmaceuticals” (Sanofi, priority 2009, dated 2015)", "biological_target": "human Edg-2 receptor (Homo sapiens, UniProt Q92633)", "sequence (Q92633 whole entry)": "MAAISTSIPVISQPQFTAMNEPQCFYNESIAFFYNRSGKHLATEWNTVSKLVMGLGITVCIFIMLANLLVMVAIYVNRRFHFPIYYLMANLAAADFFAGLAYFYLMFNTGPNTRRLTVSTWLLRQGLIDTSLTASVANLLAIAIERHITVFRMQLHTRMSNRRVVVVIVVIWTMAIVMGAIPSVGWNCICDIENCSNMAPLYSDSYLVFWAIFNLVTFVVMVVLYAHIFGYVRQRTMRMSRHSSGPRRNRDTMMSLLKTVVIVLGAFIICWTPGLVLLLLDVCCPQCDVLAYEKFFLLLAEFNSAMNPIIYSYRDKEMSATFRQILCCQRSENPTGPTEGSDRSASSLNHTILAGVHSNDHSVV", "experiment": "Determination of Edg-2 receptor inhibition by FLIPR measurements (LPA-mediated calcium liberation)", "assay_type": "cell-based", "settings": "CHO cells overexpressing human Edg-2 receptor, LPA 100 nM, fluo-4 calcium fluorescence; read-out: Inhibitory concentrations IC50 for inhibition of the Edg-2 receptor", "summary_of_the_method": "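IC50 was derived from % inhibition of the baseline-corrected peak fluo-4 signal relative to DMSO, measured in triplicate. Compound was added ~5 min before 100 nM LPA (18:1) to human Edg-2–expressing CHO cells in pH 7.5 HBSS buffer with probenecid and HEPES, and fluorescence was monitored ~3 min.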"}
{"smiles": "COc1ncc(C(=O)N[C@]2(C(=O)O)CC[C@H](C(F)(F)F)CC2)cc1-c1cc(Cl)cc(C(F)(F)F)c1", "note": "[Example 380]", "values": [{"measurement": "IC50", "value": "< 100", "unit": "nM"}]}
{"smiles": "CC[C@H]1CC[C@](NC(=O)c2cc(F)c(OCCO)c(-c3ccc(OC)c(Cl)c3)c2)(C(=O)O)CC1", "note": "[Example 381]", "values": [{"measurement": "IC50", "value": "< 100", "unit": "nM"}]}
{"smiles": "CC[C@H]1CC[C@](NC(=O)c2cc(F)c(OCCO)c(-c3cccc(OC(F)(F)F)c3)c2)(C(=O)O)CC1", "note": "[Example 382]", "values": [{"measurement": "IC50", "value": "< 100", "unit": "nM"}]}
{"smiles": "CC[C@H]1CC[C@](NC(=O)c2cc(F)c(OCCO)c(-c3ccc(F)c(F)c3)c2)(C(=O)O)CC1", "note": "[Example 384]", "values": [{"measurement": "IC50", "value": "< 100", "unit": "nM"}]}
{"smiles": "CC[C@H]1CC[C@](NC(=O)c2cc(F)c(OCCO)c(-c3cc(F)cc(F)c3)c2)(C(=O)O)CC1", "note": "[Example 385]", "values": [{"measurement": "IC50", "value": "< 100", "unit": "nM"}]}
{"smiles": "CC[C@H]1CC[C@@](NC(=O)c2ccc(OCCO)c(-c3cccc(C(F)(F)F)c3)c2)(C(=O)O)CC1", "note": "[Example 386, trans-4-Ethyl-1-{[6-(2-hydroxy-ethoxy)-3′-trifluoromethyl-biphenyl-3-carbonyl]-amino}-cyclohexanecarboxylic acid]", "values": [{"measurement": "IC50", "value": "< 100", "unit": "nM"}]}
{"smiles": "COc1c(F)cc(C(=O)N[C@]2(C(=O)O)CC[C@@H](C)CC2)cc1OCCc1cccc(CCO)c1", "note": "[Example 392, trans-1-(3-Fluoro-5-{2-[3-(2-hydroxy-ethyl)-phenyl]-ethoxy}-4-methoxy-benzoylamino)-4-methyl-cyclohexanecarboxylic acid]", "values": [{"measurement": "IC50", "value": "< 100", "unit": "nM"}]}
{"smiles": "COc1c(F)cc(C(=O)NC2(C(=O)O)CCCCCC2)cc1OCCc1cccc(CCO)c1", "note": "[Example 393, 1-(3-Fluoro-5-{2-[3-(2-hydroxy-ethyl)-phenyl]-ethoxy}-4-methoxy-benzoylamino)-cycloheptanecarboxylic acid]", "values": [{"measurement": "IC50", "value": "< 100", "unit": "nM"}]}
{"smiles": "CC[C@H]1CC[C@@](NC(=O)c2cc(F)c(OC)c(OCCc3cccc(CCO)c3)c2)(C(=O)O)CC1", "note": "[Example 394, trans-4-Ethyl-1-(3-fluoro-5-{2-[3-(2-hydroxy-ethyl)-phenyl]-ethoxy}-4-methoxy-benzoylamino)-cyclohexanecarboxylic acid]", "values": [{"measurement": "IC50", "value": "< 100", "unit": "nM"}]}
{"smiles": "CC[C@H]1CC[C@@](NC(=O)c2cnc(OC)c(OCCc3cccc(C)c3)c2)(C(=O)O)CC1", "note": "[Example 395, trans-4-Ethyl-1-{[6-methoxy-5-(2-m-tolyl-ethoxy)-pyridine-3-carbonyl]-amino}-cyclohexanecarboxylic acid]", "values": [{"measurement": "IC50", "value": "< 100", "unit": "nM"}]}
{"smiles": "CC[C@H]1CC[C@](NC(=O)c2cnc(OC)c(OCCc3cccc(C)c3)c2)(C(=O)O)CC1", "note": "[Example 396, cis-4-Ethyl-1-{[6-methoxy-5-(2-m-tolyl-ethoxy)-pyridine-3-carbonyl]-amino}-cyclohexanecarboxylic acid]", "values": [{"measurement": "IC50", "value": "< 100", "unit": "nM"}]}
{"smiles": "CC[C@H]1CC[C@@](NC(=O)c2cnc(OC)c(OCCc3cccc(Cl)c3)c2)(C(=O)O)CC1", "note": "[Example 397, trans-1-({5-[2-(3-Chloro-phenyl)-ethoxy]-6-methoxy-pyridine-3-carbonyl}-amino)-4-ethyl-cyclohexanecarboxylic acid]", "values": [{"measurement": "IC50", "value": "< 100", "unit": "nM"}]}
{"smiles": "CC[C@H]1CC[C@@](NC(=O)c2cnc(OC)c(OCCc3cccc(OC(F)(F)F)c3)c2)(C(=O)O)CC1", "note": "[Example 398, trans-4-Ethyl-1-({6-methoxy-5-[2-(3-trifluoromethoxy-phenyl)-ethoxy]-pyridine-3-carbonyl}-amino)-cyclohexanecarboxylic acid]", "values": [{"measurement": "IC50", "value": "< 100", "unit": "nM"}]}
{"smiles": "CC[C@H]1CC[C@](NC(=O)c2cnc(OC)c(OCCc3cccc(OC(F)(F)F)c3)c2)(C(=O)O)CC1", "note": "[Example 399, cis-4-Ethyl-1-({6-methoxy-5-[2-(3-trifluoromethoxy-phenyl)-ethoxy]-pyridine-3-carbonyl}-amino)-cyclohexanecarboxylic acid]", "values": [{"measurement": "IC50", "value": "< 100", "unit": "nM"}]}
{"smiles": "COc1ncc(C(=O)N[C@]2(C(=O)O)CC[C@H](C)CC2)cc1OCCc1ccccc1", "note": "[Example 400, cis-1-{[6-Methoxy-5-(2-phenyl-ethoxy)-pyridine-3-carbonyl]-amino}-4-methyl-cyclohexanecarboxylic acid]", "values": [{"measurement": "IC50", "value": "< 100", "unit": "nM"}]}
{"smiles": "COc1ncc(C(=O)NC2(C(=O)O)CCCCCC2)cc1OCCc1cccc(Cl)c1", "note": "[Example 401, 1-({5-[2-(3-Chloro-phenyl)-ethoxy]-6-methoxy-pyridine-3-carbonyl}-amino)-cycloheptanecarboxylic acid]", "values": [{"measurement": "IC50", "value": "< 100", "unit": "nM"}]}
{"smiles": "COc1ncc(C(=O)N[C@]2(C(=O)O)CC[C@H](C(F)(F)F)CC2)cc1OCCc1cccc(C)c1", "note": "[Example 402, cis-1-{[6-Methoxy-5-(2-m-tolyl-ethoxy)-pyridine-3-carbonyl]-amino}-4-trifluoromethyl-cyclohexanecarboxylic acid]", "values": [{"measurement": "IC50", "value": "< 100", "unit": "nM"}]}
{"smiles": "CC[C@H]1CC[C@](NC(=O)c2ccc(OC)c(OCCc3cccc(OC(F)(F)F)c3)c2)(C(=O)O)CC1", "note": "[Example 403, cis-4-Ethyl-1-{4-methoxy-3-[2-(3-trifluoromethoxy-phenyl)-ethoxy]-benzoylamino}-cyclohexanecarboxylic acid]", "values": [{"measurement": "IC50", "value": "< 100", "unit": "nM"}]}
{"smiles": "COc1ccc(C(=O)N[C@]2(C(=O)O)CC[C@H](C)CC2)cc1OCCc1cc(Cl)ccc1F", "note": "[Example 404, cis-1-{3-[2-(5-Chloro-2-fluoro-phenyl)-ethoxy]-4-methoxy-benzoylamino}-4-methyl-cyclohexanecarboxylic acid]", "values": [{"measurement": "IC50", "value": "< 100", "unit": "nM"}]}
{"smiles": "COc1ccc(C(=O)N[C@]2(C(=O)O)CC[C@H](C)CC2)cc1OCCc1cc(OC(F)(F)F)ccc1F", "note": "[Example 405, cis-1-{3-[2-(2-Fluoro-5-trifluoromethoxy-phenyl)-ethoxy]-4-methoxy-benzoylamino}-4-methyl-cyclohexanecarboxylic acid]", "values": [{"measurement": "IC50", "value": "< 100", "unit": "nM"}]}
{"smiles": "COc1ccc(C(=O)N[C@]2(C(=O)O)CC[C@H](C)CC2)cc1OCCc1ccccc1", "note": "[Example 406, cis-1-(4-Methoxy-3-phenethyloxy-benzoylamino)-4-methyl-cyclohexanecarboxylic acid]", "values": [{"measurement": "IC50", "value": "100 to 1000", "unit": "nM"}]}
{"smiles": "CC[C@H]1CC[C@](NC(=O)c2cnc(OC)c(-c3ccc(F)cc3)c2)(C(=O)O)CC1", "note": "[Example 407]", "values": [{"measurement": "IC50", "value": "< 100", "unit": "nM"}]}
{"smiles": "CC[C@H]1CC[C@@](NC(=O)c2cnc(OC)c(-c3ccc(Cl)c(C(F)(F)F)c3)c2)(C(=O)O)CC1", "note": "[Example 408]", "values": [{"measurement": "IC50", "value": "100 to 1000", "unit": "nM"}]}
{"smiles": "CC[C@H]1CC[C@](NC(=O)c2cnc(OC)c(-c3cccc(F)c3)c2)(C(=O)O)CC1", "note": "[Example 409]", "values": [{"measurement": "IC50", "value": "< 100", "unit": "nM"}]}
{"smiles": "COc1ncc(C(=O)N[C@]2(C(=O)O)CC[C@H](C)CC2)cc1-c1cc(F)cc(F)c1", "note": "[Example 410]", "values": [{"measurement": "IC50", "value": "< 100", "unit": "nM"}]}
{"smiles": "CC[C@H]1CC[C@](NC(=O)c2cnc(OC)c(-c3ccc(OC)c(F)c3)c2)(C(=O)O)CC1", "note": "[Example 411]", "values": [{"measurement": "IC50", "value": "< 100", "unit": "nM"}]}
{"smiles": "CC[C@H]1CC[C@@](NC(=O)c2cnc(OC)c(-c3ccc(OC)c(F)c3)c2)(C(=O)O)CC1", "note": "[Example 412]", "values": [{"measurement": "IC50", "value": "< 100", "unit": "nM"}]}
{"smiles": "CC[C@H]1CC[C@](NC(=O)c2cnc(OCCO)c(-c3cccc(C(F)(F)F)c3)c2)(C(=O)O)CC1", "note": "[Example 413, 4-Ethyl-1-{[6-(2-hydroxy-ethoxy)-5-(3-trifluoromethyl-phenyl)-pyridine-3-carbonyl]-amino}-cyclohexanecarboxylic acid]", "values": [{"measurement": "IC50", "value": "< 100", "unit": "nM"}]}
{"smiles": "CC[C@H]1CC[C@](NC(=O)c2cnc(OCCO)c(-c3ccc(F)c(F)c3)c2)(C(=O)O)CC1", "note": "[Example 414]", "values": [{"measurement": "IC50", "value": "< 100", "unit": "nM"}]}
{"smiles": "CC[C@H]1CC[C@](NC(=O)c2cnc(OCCO)c(-c3cc(F)cc(F)c3)c2)(C(=O)O)CC1", "note": "[Example 415]", "values": [{"measurement": "IC50", "value": "< 100", "unit": "nM"}]}
{"smiles": "CC[C@H]1CC[C@](NC(=O)c2cnc(OCCO)c(-c3cccc(OC(F)(F)F)c3)c2)(C(=O)O)CC1", "note": "[Example 416]", "values": [{"measurement": "IC50", "value": "< 100", "unit": "nM"}]}
{"smiles": "CC[C@H]1CC[C@](NC(=O)c2cnc(OCCO)c(-c3ccc(OC)c(Cl)c3)c2)(C(=O)O)CC1", "note": "[Example 417]", "values": [{"measurement": "IC50", "value": "< 100", "unit": "nM"}]}
{"smiles": "CC[C@H]1CC[C@@](NC(=O)c2ccc(OCCO)c(OCCc3cccc(Cl)c3)c2)(C(=O)O)CC1", "note": "[Example 418, trans-1-[3-[2-(3-Chloro-phenyl)-ethoxy]-4-(2-hydroxy-ethoxy)-benzoylamino]-4-ethyl-cyclohexanecarboxylic acid]", "values": [{"measurement": "IC50", "value": "< 100", "unit": "nM"}]}
{"smiles": "CC[C@H]1CC[C@](NC(=O)c2ccc(OCCO)c(OCCc3cccc(Cl)c3)c2)(C(=O)O)CC1", "note": "[Example 419, cis-1-[3-[2-(3-Chloro-phenyl)-ethoxy]-4-(2-hydroxy-ethoxy)-benzoylamino]-4-ethyl-cyclohexanecarboxylic acid]", "values": [{"measurement": "IC50", "value": "< 100", "unit": "nM"}]}
{"smiles": "C[C@H]1CC[C@@](NC(=O)c2ccc(OCCO)c(OCCc3ccccc3)c2)(C(=O)O)CC1", "note": "[Example 420, trans-1-[4-(2-Hydroxy-ethoxy)-3-phenethyloxy-benzoylamino]-4-methyl-cyclohexanecarboxylic acid]", "values": [{"measurement": "IC50", "value": "100 to 1000", "unit": "nM"}]}
{"smiles": "C[C@H]1CC[C@](NC(=O)c2ccc(OCCO)c(OCCc3ccccc3)c2)(C(=O)O)CC1", "note": "[Example 421, cis-1-[4-(2-Hydroxy-ethoxy)-3-phenethyloxy-benzoylamino]-4-methyl-cyclohexanecarboxylic acid]", "values": [{"measurement": "IC50", "value": "100 to 1000", "unit": "nM"}]}
{"smiles": "O=C(NC1(C(=O)O)CCCCCC1)c1ccc(OCCO)c(OCCc2ccccc2)c1", "note": "[Example 422, 1-[4-(2-Hydroxy-ethoxy)-3-phenethyloxy-benzoylamino]cycloheptanecarboxylic acid]", "values": [{"measurement": "IC50", "value": "100 to 1000", "unit": "nM"}]}
{"smiles": "CC[C@H]1CC[C@](NC(=O)c2cnc(OC)c(OCCc3cccc(CCO)c3)c2)(C(=O)O)CC1", "note": "[Example 423, cis-4-Ethyl-1-[(5-{2-[3-(2-hydroxy-ethyl)-phenyl]-ethoxy}-6-methoxy-pyridine-3-carbonyl)-amino]-cyclohexanecarboxylic acid]", "values": [{"measurement": "IC50", "value": "< 100", "unit": "nM"}]}
{"smiles": "CC[C@H]1CC[C@@](NC(=O)c2cnc(OC)c(OCCc3cccc(CCO)c3)c2)(C(=O)O)CC1", "note": "[Example 424, trans-4-Ethyl-1-[(5-{2-[3-(2-hydroxy-ethyl)-phenyl]-ethoxy}-6-methoxy-pyridine-3-carbonyl)-amino]-cyclohexanecarboxylic acid]", "values": [{"measurement": "IC50", "value": "< 100", "unit": "nM"}]}
{"smiles": "CC[C@H]1CC[C@](NC(=O)c2ccc(OC)c(-c3ccc(OC)c(F)c3)c2)(C(=O)O)CC1", "note": "[Example 425, cis-4-Ethyl-1-[(3′-fluoro-6,4′-dimethoxy-biphenyl-3-carbonyl)-amino]-cyclohexanecarboxylic acid]", "values": [{"measurement": "IC50", "value": "100 to 1000", "unit": "nM"}]}
